pEC50: −log10 of the molar value. Converted amounts (≈) assume the structure as drawn. “And” between values parts separate entries of the source, which are not always exact repeats. Equal values may be shown once. Read-outs that look alike come from different tables or passages of the source.
What was measured:
HIV-1 protease = molecular target: T1, HIV-1 protease (Human immunodeficiency virus type 1 group M subtype B, UniProt P04585); assay: Protease inhibition assay (fluorometric); type: biochemical
T1 construct: use of the fluorometric, HIV-1 protease assay; purchased Bachem
Experimental: Protease inhibition is evaluated using a fluorometric method. Enzyme (Bachem) is diluted to 116 μgm/ml in 50 mM NaOAC, 5 mM DTT, 2 mM EDTA, 10% glycerol (pH 5.0) and stored as 10 μl samples at −20° C. HIV protease substrates 1 (Molecular Probes) are diluted to a working concentration of 0.32 nmoles/μl. Enzyme (20 μl) and drug (20 μl) are added to each well of a microtiter plate as appropriate. Positive and negative controls are evaluated in parallel. Fluorescene is quantitated on Labsystems Fluroskan II using 355 nm/460 nm at 37° C. at time zero and at 30 minute intervals for 2 hours. In instances where auto-fluorescence precludes use of the fluorometric, HIV-1 protease assay or confirmation of a result is required, an HPLC based protease assay can be employed.
The mechanism of action of the (5-aryl-1,2,4-thiadiazol)-3-yl thiourea derivatives or (5-aryl-1,2,4-thiadizol)-3-yl urea derivatives is not known.

HIV-1 cell line, CEMIIIB = assay: Long term in vitro study, CEMIIIB; type: cell-based
Experimental: (§1) Toxicity quantification involves the XTT-based evaluation. Assays were designed to characterize the long term effects of the compounds on virus production and to characterize the longer term effects of the compounds on virus production from chronically HIV infected cells.
(§2) CEM-SS cells chronically infected with HIV isolate, for example SKI (CEM-SKI) are cultured in RPMI1640 tissue culture medium supplemented with 10% fetal bovine serum and antibiotics. […] CEM-SKI or other infected cells with no added drug are used as the control cells.
(§3) Cells are allowed to grow to a density of approximately 1×10^6 cells/ml and are then passaged at a 1:10 dilution. […] The drug concentration in the flask is then increased two-fold and the cells maintained as above.
(§4) The cell populations contain integrated copies of the HIV genome and constitutively produce HIV at relatively high levels or are latently infected and only produce virus after stimulation with phorbol esters, tumor necrosis factor or IL6(U1 and ACH2). Reductions in virus products were observed when quantifying supernatant reverse transcriptase activity.
The results with CEMIIIB cells was reported at weekly intervals.
The CEMIIIB is a viral strain of the CEMSS cell line.

HIV-1 cell line, CEMRF = assay: Long term in vitro study, CEMRF; type: cell-based; details: 7 μg/ml
Experimental: as §1, §2, §3, §4
The results with CEMRF cells was reported at weekly intervals.
The CEMRF is a viral strain of the CEMSS cell line.

CEMROD = assay: Toxicity values in the HIV-2 screening test; type: cell-based; set-up: Toxicity Values, sample / Toxicity Values, average: unit not given here
Description: as §1

Cryptococcus neoformans = assay: Anti-fungal activity, MFC (NCCLS M-27A based); type: cell-based
Experimental: It was active against Cryptococcus neoformans and Curvularia lunata. The cidal activity for the C. neoformans is high enough that it is clear […] against this yeast. This test was conducted using a method based upon NCCLS reference method M-27A published in 1997. Solvent, medium and growth controls were set-up with the tests. Once these were read to validate the test performance, the QC fungi were read to insure they had expected results. These steps validated the test system. DMSO was used as a drug-chemical solvent. […] The 90% cut-off is necessary for azoles, which are static and not cidal. The […] or cidal level, was determined by sub-culturing a sample from each tube showing no growth.

hepatitis B = assay: In vitro virus production test of hepatitis B, HEPG2 2.2.15; type: cell-based; details: for IC50: Hepatitis B virus, HepG2 2.2.15, hepatitis B, read-out: IC50
BVDV = BVDV testing in vitro; type: cell-based, bovine diarrhea virus
Description: DMSO had no effect, as expected.
BVDV is a bovine diarrhea virus and is a well known surrogate virus for hepatitis C which cannot be cultured in vitro.

NC(=S)Nc1nsc(-c2ccccc2)n1
pEC50 (HIV-1 protease): < 3.37 | activity as a protease inhibitor (HIV-1 protease): did not show activity | remaining activity at 0.001 µM (HIV-1 protease; 1 nM, read-out: Protease inhibition, % no drug control): 100% | remaining activity at 0.01 µM (HIV-1 protease; 10 nM, read-out: Protease inhibition, % no drug control): 103% | remaining activity at 0.1 µM (HIV-1 protease; 100 nM, read-out: Protease inhibition, % no drug control): 99.9% | remaining activity at 1 µM (HIV-1 protease; read-out: Protease inhibition, % no drug control): 88% | virus production (supernatant reverse transcriptase activity) (HIV-1 cell line, CEMIIIB; 7 μg/ml, day 4): 4849 | virus production (supernatant reverse transcriptase activity) (HIV-1 cell line, CEMIIIB; 7 μg/ml, day 11): 6658 | virus production (supernatant reverse transcriptase activity) (HIV-1 cell line, CEMIIIB; 7 μg/ml, day 18): 7078 | virus production (supernatant reverse transcriptase activity) (HIV-1 cell line, CEMIIIB; 7 μg/ml, day 25): 5221 | virus production (supernatant reverse transcriptase activity) (HIV-1 cell line, CEMIIIB; 7 μg/ml, day 32): 5329 | virus production (supernatant reverse transcriptase activity) (HIV-1 cell line, CEMIIIB; 7 μg/ml, day 39): 7349 | virus production (supernatant reverse transcriptase activity) (HIV-1 cell line, CEMIIIB; 7 μg/ml, day 46): 11262 | virus production (supernatant reverse transcriptase activity) (HIV-1 cell line, CEMIIIB; 7 μg/ml, day 53): 11286 | virus production (supernatant reverse transcriptase activity) (HIV-1 cell line, CEMIIIB; 15 μg/ml, day 4): 5078 | virus production (supernatant reverse transcriptase activity) (HIV-1 cell line, CEMIIIB; 15 μg/ml, day 11): 5733 | virus production (supernatant reverse transcriptase activity) (HIV-1 cell line, CEMIIIB; 15 μg/ml, day 18): 6057 | virus production (supernatant reverse transcriptase activity) (HIV-1 cell line, CEMIIIB; 15 μg/ml, day 25): 4980 | virus production (supernatant reverse transcriptase activity) (HIV-1 cell line, CEMIIIB; 15 μg/ml, day 32): 4273 | virus production (supernatant reverse transcriptase activity) (HIV-1 cell line, CEMIIIB; 15 μg/ml, day 39): 6329 | virus production (supernatant reverse transcriptase activity) (HIV-1 cell line, CEMIIIB; 15 μg/ml, day 46): 10361 | virus production (supernatant reverse transcriptase activity) (HIV-1 cell line, CEMIIIB; 15 μg/ml, day 53): 9844 | virus production (supernatant reverse transcriptase activity) (HIV-1 cell line, CEMIIIB; 30 μg/ml, day 4): 5251 | virus production (supernatant reverse transcriptase activity) (HIV-1 cell line, CEMIIIB; 30 μg/ml, day 11): 6200 | virus production (supernatant reverse transcriptase activity) (HIV-1 cell line, CEMIIIB; 30 μg/ml, day 18): 6952 | virus production (supernatant reverse transcriptase activity) (HIV-1 cell line, CEMIIIB; 30 μg/ml, day 25): 4110 | virus production (supernatant reverse transcriptase activity) (HIV-1 cell line, CEMIIIB; 30 μg/ml, day 32): 3337 | virus production (supernatant reverse transcriptase activity) (HIV-1 cell line, CEMIIIB; 30 μg/ml, day 39): 4233 | virus production (supernatant reverse transcriptase activity) (HIV-1 cell line, CEMIIIB; 30 μg/ml, day 46): 9238 | virus production (supernatant reverse transcriptase activity) (HIV-1 cell line, CEMIIIB; 30 μg/ml, day 53): 3527 | virus production (supernatant reverse transcriptase activity) (HIV-1 cell line, CEMRF; day 4): 5423 | virus production (supernatant reverse transcriptase activity) (HIV-1 cell line, CEMRF; day 11): 2249 | virus production (supernatant reverse transcriptase activity) (HIV-1 cell line, CEMRF; day 18): 2951 | virus production (supernatant reverse transcriptase activity) (HIV-1 cell line, CEMRF; day 25): 3606 | % cell control (CEMROD; 0.32 μg/ml): 101.6% | Toxicity Values, average (CEMROD; 0.32 μg/ml): 1.197 | Toxicity Values, sample (CEMROD; 0.32 μg/ml): 1.181 and 1.206 and 1.203 | % cell control (CEMROD; 1 μg/ml): 90.9% | Toxicity Values, average (CEMROD; 1 μg/ml): 1.071 | Toxicity Values, sample (CEMROD; 1 μg/ml): 1.055 and 1.093 and 1.066 | % cell control (CEMROD; 1.0 μg/ml): 75.6% | Toxicity Values, average (CEMROD; 1.0 μg/ml): 0.891 | Toxicity Values, sample (CEMROD; 1.0 μg/ml): 0.871 and 0.881 and 0.921 | % cell control (CEMROD; 3.2 μg/ml): 83.1% | Toxicity Values, average (CEMROD; 3.2 μg/ml): 0.979 | Toxicity Values, sample (CEMROD; 3.2 μg/ml): 0.987 and 0.984 and 0.965 | % cell control (CEMROD; 32 μg/ml): 43.2% | Toxicity Values, average (CEMROD; 32 μg/ml): 0.509 | Toxicity Values, sample (CEMROD; 32 μg/ml): 0.518 and 0.491 and 0.517 | % cell control (CEMROD; 100 μg/ml): 9.8% | Toxicity Values, average (CEMROD; 100 μg/ml): 0.115 | Toxicity Values, sample (CEMROD; 100 μg/ml): 0.113 and 0.117 and 0.115 | anti-fungal activity in vitro (Cryptococcus neoformans): active | MFC (Cryptococcus neoformans; cidal level, read-out: MFC): 32 µg/mL (≈ 135 µM) | % virus control (hepatitis B; 0.64 μg/ml): 55.1% | DNA Copy Number (per 3 μl), mean (hepatitis B; 0.64 μg/ml): 145.8 per 3 μl | DNA Copy Number (per 3 μl), sample (hepatitis B; 0.64 μg/ml): 131.5 per 3 μl and 155.2 per 3 μl and 150.8 per 3 μl | % virus control (hepatitis B; 2 μg/ml): 31.9% | DNA Copy Number (per 3 μl), mean (hepatitis B; 2 μg/ml): 84.3 per 3 μl | % virus control (hepatitis B; 6.4 μg/ml): 36.1% | DNA Copy Number (per 3 μl), mean (hepatitis B; 6.4 μg/ml): 95.4 per 3 μl | % virus control (hepatitis B; 20 μg/ml): 15.8% | DNA Copy Number (per 3 μl), mean (hepatitis B; 20 μg/ml): 41.9 per 3 μl | % virus control (hepatitis B; 64 μg/ml): 33.1% | DNA Copy Number (per 3 μl), mean (hepatitis B; 64 μg/ml): 87.5 per 3 μl | DNA Copy Number (per 3 μl), sample (hepatitis B; 64 μg/ml): 98.6 per 3 μl and 76.0 per 3 μl and 87.8 per 3 μl | % virus control (hepatitis B; 200 μg/ml): 22.7% | DNA Copy Number (per 3 μl), mean (hepatitis B; 200 μg/ml): 60.0 per 3 μl | IC50 (hepatitis B; HEPG2 2.2.15, replicate experiment): 0.76 µg/mL (≈ 3.22 µM) | IC50 (hepatitis B; HEPG2 2.2.15): 0.94 µg/mL (≈ 3.98 µM) | therapeutic index or TI (hepatitis B; hepatitis B, HEPG2 2.2.15): 212.8 | TI (hepatitis B; hepatitis B, HEPG2 2.2.15, replicate experiment): 263.2 | Antiviral Index (AI), TC50/IC50 (BVDV; first test): greater than 4000 | Antiviral Index (AI), TC50/IC50 (BVDV; second screening test): 1000.4

— patent US6410575B1, “Viral treatment” (The Procter & Gamble Company, priority 1999, dated 2002)
